pKi: −log10 of the molar value.
Experiments:
5-HT2A receptor [1] = assay: Head-twitch response (HTR) and behavioral observation in mice; type: in vivo, adult, male C57BL/6J mice; conditions: 10 mg/kg PO, mice
Method: The HTR assay was performed in adult, male C57BL/6J mice, procured from the Jackson Laboratory (Bar Harbor, Maine), as previously described (Canal, C. E., and Morgan, D., 2012, Head-twitch response in rodents induced by the hallucinogen 2,5-dimethoxy-4-iodoamphetamine: a comprehensive history, a re-evaluation of mechanisms, and its utility as a model, Drug Test Anal 4, 556-576; Saraf, T. S., Felsing, D. E., Armstrong, J. L., Booth, R. G., and Canal, C. E., 2021, Evaluation of lorcaserin as an anticonvulsant in juvenile Fmr1 knockout mice, Epilepsy Res 175, 106677). Mice were housed in standard laboratory cages with ad libitum access to food and water, and were acclimated to the vivarium for at least one week prior to testing in a procedure room. On the day of testing, mice were acclimated to the procedure room in their home cages for ≥60 min before administration of test compounds. Test articles were administered at 10 mg/kg by oral gavage and mice were placed immediately thereafter in a clear, polycarbonate box (46×20×20 cm), and HTRs were counted for 30 consecutive minutes, using hand-held tally counters, by two trained observers who were blind to treatment.

[2] = humans (TIHKAL; Erowid); cited from earlier work
5-HT2A receptor [3] = biological target: T1, 5-HT2A receptor (Homo sapiens, UniProt P28223); assay: Competition binding assay with [125I]DOI, 5-HT2A receptor; conditions: [125I]DOI radioligand; read-out: 5-HT2A affinity
T1 construct: expressed in transfected cells
T1 sequence (P28223 whole entry): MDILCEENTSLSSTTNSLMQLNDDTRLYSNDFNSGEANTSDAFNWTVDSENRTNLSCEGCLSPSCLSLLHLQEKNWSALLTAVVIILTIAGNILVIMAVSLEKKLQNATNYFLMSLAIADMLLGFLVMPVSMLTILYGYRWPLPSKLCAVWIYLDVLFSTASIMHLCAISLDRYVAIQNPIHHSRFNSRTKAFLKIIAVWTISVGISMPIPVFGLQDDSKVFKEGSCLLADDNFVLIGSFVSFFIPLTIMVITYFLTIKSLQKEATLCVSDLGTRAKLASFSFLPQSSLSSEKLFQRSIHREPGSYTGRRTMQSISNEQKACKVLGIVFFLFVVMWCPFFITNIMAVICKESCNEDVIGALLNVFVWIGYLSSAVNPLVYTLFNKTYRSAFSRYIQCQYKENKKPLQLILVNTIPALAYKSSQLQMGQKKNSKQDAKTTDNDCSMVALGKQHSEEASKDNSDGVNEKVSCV
Method: (§1) Binding affinity (Ki) and functional potency and efficacy (EC50 and EMAX) values of the compounds were measured.

5-HT2A receptor [4] = biological target: T1, 5-HT2A receptor; assay: 5-HT2A receptor functional screening assay (efficacy relative to maximal 5-HT response); type: cell-based
Method: 5-HT2 receptor-mediated Gq stimulation [phosphoinositide hydrolysis leading to the production of inositol phosphate 1 (IP1)]-canonical signaling pathways-were measured as previously described (Canal, C. E., Cordova-Sintjago, T., Liu, Y., Kim, M. S., Morgan, D., and Booth, R. G., 2013, Molecular pharmacology and ligand docking studies reveal a single amino acid difference between mouse and human serotonin 5-HT2A receptors that impacts behavioral translation of novel 4-phenyl-2-dimethylaminotetralin ligands, J Pharmacol Exp Ther 347, 705-716; Canal, C. E., Morgan, D., Felsing, D., Kondabolu, K., Rowland, N. E., Robertson, K. L., Sakhuja, R., and Booth, R. G., 2014, A Novel Aminotetralin-Type Serotonin (5-HT)(2C) Receptor —Specific Agonist and 5-HT2A Competitive Antagonist/5-HT2B Inverse Agonist with Preclinical Efficacy for Psychoses, J Pharm Exp Ther 349, 533), for example, with a homogeneous time-resolved fluorescence (HTRF) capable microplate reader (e.g., Mithras LB 940, Berthold) using commercially-available kits employing Fluorescence Resonance Energy Transfer (FRET) technology (e.g., IP-One HTRF (Cisbio) kits). Briefly, CHO-K1 or HEK293 cells expressing a single serotonergic 5-HT2 receptor subtype were incubated with test compounds and 5-HT or DOI (positive control) in stimulation buffer containing LiCl. After equilibration, the reaction was terminated with the donor and acceptor fluorescent conjugates in lysis buffer, and FRET was measured with a microplate reader (Berthold Mithras). Data were fit to non-linear curves to calculate potencies (e.g., EC50) and efficacies (e.g., EMAX), relative to positive controls (e.g., serotonin).

in vitro = in vitro ADME, Male Sprague-Dawley rat; conditions: rat liver microsomes 0.5 mg/mL, 1 mM NADPH, test compound 1 μM, pH 7.4, 37° C.; read-out: RLM, t1/2
Method: Male Sprague-Dawley rat liver microsomes were purchased from XenoTech. The reaction mixture, minus NADPH, was prepared as described below. The test compound was added into the reaction mixture at a final concentration of 1 μM. The control compound, testosterone, was run simultaneously with the test compound in a separate reaction. The reaction mixture (without cofactor) was equilibrated in a shaking water bath at 37° C. for 5 minutes. The reaction was initiated by the addition of the cofactor, and the mixture was incubated in a shaking water bath at 37° C. Aliquots (150 μL) were withdrawn at 0, 5, 10, 20, 30, 60, and 120 minutes. Test compound and testosterone samples were immediately combined with 150 μL of ice-cold acetonitrile (ACN) containing 0.1% formic acid and internal standard to terminate the reaction. The samples were then mixed and centrifuged to precipitate proteins. All samples were assayed by LC-MS/MS using electrospray ionization. The peak area response ratio (PARR) of analyte to internal standard at each time point was compared to the PARR at time 0 to determine the percent remaining at each time point. Half-lives were calculated using GraphPad software, fitting to a single-phase exponential decay equation.

[5] = biological target: T2, human serotonin 5-HT2A receptor (Homo sapiens, UniProt P28223); assay: Radioligand ([3H]LSD) competition binding, 5-HT2A receptor; conditions: in words; up to 10 μM for partial competition
T2 construct: host or cells: HEK293 (ATCC CRL-1573)
T2 sequence (P28223 whole entry): as above
Method: as §1
Radioligand competition binding was performed as previously described (Saraf, T. S., Felsing, D. E., Armstrong, J. L., Booth, R. G., and Canal, C. E., 2021, Evaluation of lorcaserin as an anticonvulsant in juvenile Fmr1 knockout mice, Epilepsy Res 175, 106677), with minor modifications, using human cloned 5-HT2A receptors. Plasmids encoding human serotonin 5-HT2A receptor cDNA were procured from the cDNA Resource Center. Human embryonic kidney cells (HEK293, ATCC CRL-1573) were grown in a cell incubator in 100 mm dishes with antibiotic-free Dulbecco's modified Eagle's medium containing 10% fetal bovine serum. Cells were transfected at ~85% confluency with 5-15 μg cDNA using TransIT-2020 reagent (Mirus Bio, Madison, Wisconsin). After approximately 48 hours, cell membrane was collected via centrifugation. For all experiments, serotonin (5-HT) hydrochloride was used as a positive control, and mianserin hydrochloride (10 μM) was used to define non-specific binding. Each cell membrane homogenate expressing 5-HT2A receptors was incubated at room temperature in 96-well plates with [^3H] […] Following equilibration, each sample was filtered rapidly under vacuum through fiberglass filters presoaked in a buffer and washed by vacuum several times with an ice-cold buffer. Filters were soaked with scintillation fluid and counts per minute were detected using photodetectors (Microbeta Scintillation Counter). […] Data shown are the results from all experiments combined. As is known, G protein-coupled receptors, including the 5-HT2A receptor, can exist in multiple conformations, and ligands, typically agonist ligands, have unique affinities for these conformations of the receptor (Kenakin, T. Theoretical Aspects of GPCR-Ligand Complex Pharmacology, Chem. Rev. 2017, 117, 1, 4-20). […] However, for simplicity reasons, affinity of these compounds are reported herein as fitted to the single-site model. The data point for −10 samples is total specific binding (no compound present), and −4 was interpolated to complete the binding curves to 0 specific binding.

recombinant human MAO-A = recombinant human MAO-A (Homo sapiens, UniProt P21397); assay: in vitro; type: in vitro ADME; conditions: role: substrate, hrMAO-A 0.02 mg/mL, test compound 1 μM, pH 7.4, 37° C.
recombinant human MAO-A, sequence (P21397 whole entry): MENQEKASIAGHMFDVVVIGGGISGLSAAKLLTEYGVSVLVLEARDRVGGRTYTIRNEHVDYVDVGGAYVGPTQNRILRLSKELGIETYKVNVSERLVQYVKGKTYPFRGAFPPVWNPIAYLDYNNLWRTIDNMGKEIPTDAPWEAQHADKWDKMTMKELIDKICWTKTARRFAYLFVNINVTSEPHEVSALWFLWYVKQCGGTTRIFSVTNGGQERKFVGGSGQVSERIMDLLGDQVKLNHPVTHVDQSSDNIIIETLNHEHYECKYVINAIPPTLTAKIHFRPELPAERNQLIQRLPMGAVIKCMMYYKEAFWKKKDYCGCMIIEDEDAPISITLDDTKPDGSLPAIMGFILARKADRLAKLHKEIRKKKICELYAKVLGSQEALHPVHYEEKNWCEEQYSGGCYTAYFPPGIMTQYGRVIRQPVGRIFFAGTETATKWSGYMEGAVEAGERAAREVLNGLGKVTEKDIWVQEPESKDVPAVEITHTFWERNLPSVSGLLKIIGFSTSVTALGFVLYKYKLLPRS
Method: hrMAO-A and MAO control were purchased from XenoTech. The reaction mixture was prepared as described below. The test compound was added into the reaction mixture at a final concentration of 1 μM. The positive control, kynuramine (25 μM), was run simultaneously with the test compound in a separate reaction. The reaction mixture (without test compounds or kynuramine) was equilibrated in a shaking water bath at 37° C. for 5 minutes. The reaction was initiated by the addition of the test compound or kynuramine, and the mixture was incubated in a shaking water bath at 37° C. Aliquots (150 μL) of the test compound reaction mixture were withdrawn at 0, 5, 10, 20, 30,60, and 120 minutes. Aliquots (150 μL) of the positive control reaction mixture were withdrawn at 0 and 30 minutes. Test compound and kynuramine samples were immediately combined with 150 AL of ice-cold 100% acetonitrile containing 0.1% formic acid and internal standard (0.2 μM metoprolol) to terminate the reaction. The samples were then mixed and centrifuged to precipitate proteins. All samples were assayed by LC-MS/MS. The peak area response ratio (PARR) of analyte to internal standard at each time point was compared to the PARR at time 0 to determine the percent remaining at each time point. Half-lives were calculated using GraphPad software, fitting to a single-phase exponential decay equation.

CCN(CC)CCc1c[nH]c2ccccc12 [DET, N,N-diethyltryptamine, reference compound]
elicitation of HTR (in words) (5-HT2A receptor [1]): inactive at eliciting the HTR
qualitative behavioral changes (5-HT2A receptor [1]): accelerated breathing, hyperlocomotion, hiccup responses, and chewing movements of mouth
oral activity in humans [2]: active orally in humans

CN(CCc1c[nH]c2ccccc12)[S+]([O-])C(F)(F)F (stereo not drawn) [II-15, N-(2-(1H-indol-3-yl)ethyl)-1,1,1-trifluoro-N-methylmethanesulfinamide]
pKi (5-HT2A receptor [3]): < 5.52
activation at 0.5 µM (5-HT2A receptor [4]; 500 nM): -24.1%
activation at 50 µM (5-HT2A receptor [4]; 50 μM): -36.9%
5-HT2A functional activity (in words) (5-HT2A receptor [4]; in vitro screening, II-15: both 500 nM and 50 μM): inverse agonist efficacy

CN(CCc1c[nH]c2ccccc12)CC(F)(F)F [II-19, N-(2-(1H-indol-3-yl)ethyl)-2,2,2-trifluoro-N-methylethan-1-amine]
half-life at 1 µM (in vitro): 3.95 min
competition for [3H]LSD-labeled 5-HT2A receptors [5]: only partial competition

FC(F)(F)CNCCc1c[nH]c2ccccc12 [II-20, N-(2-(1H-indol-3-yl)ethyl)-2,2,2-trifluoroethan-1-amine]
half-life at 1 µM (in vitro): 7.63 min
half-life at 1 µM (recombinant human MAO-A): > 120 min
competition for [3H]LSD-labeled 5-HT2A receptors [5]: only partial competition

CN(CCc1c[nH]c2cccc(O)c12)CC(F)(F)F [III-13, 3-(2-(methyl (2,2,2-trifluoroethyl)amino)ethyl)-1H-indol-4-ol]
half-life at 1 µM (in vitro): 4.5 min

CN(C)CCc1c[nH]c2ccc(OC(F)(F)F)cc12 [IV-3, N,N-dimethyl-2-(5-(trifluoromethoxy)-1H-indol-3-yl) ethan-1-amine]
half-life at 1 µM (in vitro): 13.1 min

COc1ccc2[nH]cc(CCN(C)CC(F)(F)F)c2c1 [IV-40, 2,2,2-trifluoro-N-(2-(5-methoxy-1H-indol-3-yl)ethyl)-N-methylethan-1-amine]
half-life at 1 µM (in vitro): 4.55 min

Reference: patent US20260337162A1, “TRYPTAMINE COMPOUNDS, COMPOSITIONS, AND METHODS OF USE” (priority 2022, published 2026)
